Test results taken from ChEMBL document CHEMBL4145636, “Izenamides A and B, Statine-Containing Depsipeptides, and an Analogue from a Marine Cyanobacterium” (J Nat Prod, 2018).
The source made the active and inactive calls. The rule behind the calls is not given here.

Columns and labels:
HL-60 = experiment: Growth inhibition of human HL60 cells up to 10 uM after 72 hrs by MTT assay; type: functional, cell-based
MCF7 = experiment: Growth inhibition of human MCF7 cells up to 10 uM after 72 hrs by MTT assay; type: functional, cell-based
Cathepsin D = Cathepsin D (Homo sapiens, UniProt P07339); experiment: Inhibition of human cathepsin D using GKPILFFRLK(DNP)-D-RNH2) labeled MCA as substrate preincubated for 10 mins followed by substrate addition measured after 1 to 2 hrs by fluorometric method
Cathepsin D, sequence (P07339 65-162 limits assumed): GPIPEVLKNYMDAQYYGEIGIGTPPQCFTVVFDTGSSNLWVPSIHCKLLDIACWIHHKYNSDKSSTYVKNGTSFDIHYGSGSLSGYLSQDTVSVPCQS
Cathepsin D, sequence (P07339 169-412 limits assumed): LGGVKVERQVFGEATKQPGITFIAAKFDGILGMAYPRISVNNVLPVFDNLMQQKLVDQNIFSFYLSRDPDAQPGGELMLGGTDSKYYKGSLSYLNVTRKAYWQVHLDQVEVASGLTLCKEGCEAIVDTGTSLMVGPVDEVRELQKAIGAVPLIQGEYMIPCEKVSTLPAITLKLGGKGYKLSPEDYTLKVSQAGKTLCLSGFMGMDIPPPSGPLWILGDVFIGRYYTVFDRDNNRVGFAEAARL

HeLa = experiment: Growth inhibition of human HeLa cells up to 10 uM after 72 hrs by MTT assay; type: functional, cell-based

| IC50 (Cathepsin D) | Compound | growth inhibition (GI) (HL-60) | growth inhibition (GI) (MCF7) | growth inhibition (GI) (HeLa) |
| --- | --- | --- | --- | --- |
| > 10000 nM | CC[C@H](C)[C@H](NC(=O)[C@H](OC(=O)[C@@H](O)C(C)C)[C@@H](C)CC)C(=O)NCC(=O)N(C)[C@H](Cc1ccccc1)C(=O)N1CCC[C@H]1C(=O)OC | inactive | inactive | inactive |
| 270 nM | CC[C@H](C)[C@H](NC(=O)C[C@H](O)[C@H](CC(C)C)NC(=O)[C@H](OC(=O)[C@@H](O)C(C)C)[C@@H](C)CC)C(=O)N[C@@H](C)C(=O)N(C)[C@H](Cc1ccccc1)C(=O)N1CCC[C@H]1C(=O)OC | inactive | inactive | inactive |
| 380 nM | CC[C@H](C)[C@H](NC(=O)C[C@H](O)[C@H](CC(C)C)NC(=O)[C@H](OC(=O)[C@@H](O)C(C)C)C(C)C)C(=O)N[C@@H](C)C(=O)N(C)[C@H](Cc1ccccc1)C(=O)N1CCC[C@H]1C(=O)OC | inactive | inactive | inactive |
